Publication PMC12655438, “Inhibitory Activity of Calcium and Sodium Ion Channels of Neurotoxic Protoplaythoa variabilis V-Shape Helical Peptide Analogs and Their Neuroprotective Effect In Vitro” (Pharmaceuticals, 2025)
“Also recorded” adds a separate entry of the source. Where two headings read alike, the source gives them in different places. Where a SMILES comes first, the peptide text is derived from it. Bridges are numbered along the chain shown (N, C = ends).

Assays:
[1] = system: sodium inward current (INa) in bovine chromaffin cells; test: Sodium current (INa) block, whole-cell patch clamp in bovine chromaffin cells; type: cell-based; details: for Block of INa: 10 ms pulses to 0 mV, holding -80 mV, 0 mM external Ca2+, pH 7.4, 22–24 °C, end of 3-min superfusion (legend: 1 min), mean ± SEM, n = 3–6 cells; for IC50: peak INa, fit to an exponential function, 1, 3, 10 μM, read-out: IC50 for sodium current blockade
[2] = system: voltage-dependent potassium current (IKv) in bovine chromaffin cells; test: Voltage-dependent potassium current (IKv) block, whole-cell patch clamp in bovine chromaffin cells; type: cell-based; details: for Block of IKv: 10 µM, 400 ms pulses to 100 mV, holding -80 mV, 2 mM Ca2+, 200 μM Cd2+, 22–24 °C, mean ± SEM, n = 3–4 cells
[3] = system: voltage-dependent Ca^2+ channel (ICa) in bovine chromaffin cells; type: cell-based; details: for Block of ICa: 50 ms pulses to 0 mV, holding -80 mV, 10 mM Ca2+, 5 μM TTX, pH 7.4, 22–24 °C, end of 1-min superfusion; for IC50: peak ICa, fit to an exponential function, 1, 3, 10 μM, read-out: IC50 for calcium current blockade
[4] = system: intracellular calcium level ([Ca^2+]c) in bovine chromaffin cells; test: Intracellular calcium level with Fluo-4-AM in K+-stimulated bovine chromaffin cells; type: cell-based; details: for Reduction of [Ca2+]c: Fluo-4, K+ stimulus (text 35 µM, legend 35 mM), room temperature, fluorescence 488/522 nm, mean ± SEM; for Reduction of fluorescence compared with baseline: p ≤ 0.001; for IC50: K+-stimulated, fit to an exponential function, 1, 3, 10 μM, read-out: IC50 for depression of the intracellular calcium increment
[5] = system: human neuroblastoma (SH-SY5Y) cells; details: for Cell viability: 24 h
[6] = system: voltage-gated sodium channels in vertebrates; details: ref [14]; cited from earlier work
Source text: (§1) Previously, we investigated the synthetic versions of the linear PpVα and the folded PpVα analog, which contains an internal single disulfide bond, and the linear, chimeric PpVα.

[7] = TFA salt, lyophilized powder, ref China Peptides (custom peptide service), cited from earlier work
[8] = system: human neuroblastoma (SH-SY5Y) cells
zebrafish larvae = details: cited from earlier work; for LD50 in zebrafish larvae: concentration causing 50% of death
[9] = system: 6-OHDA-induced neurotoxicity on zebrafish locomotor behavior; details: ROS, dopaminergic neurons, ref [14], cited from earlier work
Source text: Previously, we investigated the synthetic versions of the linear PpVα and the folded PpVα analog, which contains an internal single disulfide bond, and the linear, chimeric PpVα. […] [17].

[10] = system: zebrafish model of epilepsy; details: ref [14]; cited from earlier work
Source text: as §1

Cav channels (Cav2.2) = details: cited from earlier work
[11] = 1 μM, mean ± SEM, n = 3–5 cells (legend: 5–6)
[12] = 3 μM, mean ± SEM of 5–6 experiments
[13] = 10 μM, mean ± SEM of 5–6 experiments

Compound	Block of INa ([1]; 3 μM) [%]	Block of INa ([1]; 10 μM) [%]	IC50 [1] [µM]	Block of IKv [2] [%]	Block of ICa [3, 11] [%]	Block of ICa [3, 13] [%]	IC50 [3] [µM]	Reduction of [Ca2+]c ([4]; 1 μM) [%]	Reduction of [Ca2+]c ([4]; 3 μM) [%]	Reduction of [Ca2+]c ([4]; 10 μM) [%]	IC50 [4] [µM]	Cell viability ([5]; 1 μM) [%]	Cell viability ([5]; 3 μM) [%]	Cell viability ([5]; 10 μM) [%]	also measured
CC[C@H](C)[C@H](NC(=O)[C@H](CC(C)C)NC(=O)[C@H](CCC(=O)O)NC(=O)CN)C(=O)N[C@@H](CCCCN)C(=O)N[C@@H](CCSC)C(=O)N[C@@H](CCCCN)C(=O)N[C@@H](Cc1ccc(O)cc1)C(=O)N[C@@H](Cc1c[nH]c2ccccc12)C(=O)N[C@H](C(=O)N[C@@H](CC(C)C)C(=O)N[C@@H](CC(N)=O)C(=O)N[C@H](C(=O)N1CCC[C@H]1C(=O)N[C@@H](C)C(=O)N[C@@H](CO)C(=O)N[C@H](C(=O)N[C@@H](CS)C(=O)N[C@@H](CC(=O)O)C(=O)N[C@@H](CCC(=O)O)C(=O)N[C@@H](Cc1ccc(O)cc1)C(=O)N[C@@H](CS)C(=O)N[C@@H](Cc1c[nH]c2ccccc12)C(=O)N[C@@H](CO)C(=O)N[C@@H](CCC(N)=O)C(=O)N[C@@H](CCSC)C(=O)N[C@@H](CC(C)C)C(=O)N[C@@H](CC(C)C)C(=O)N[C@@H](Cc1ccc(O)cc1)C(=O)N[C@@H](CCCCN)C(=O)N[C@@H](CCCCN)C(=O)N[C@@H](CO)C(N)=O)C(C)C)C(C)C)[C@@H](C)CC [CHI] (H-GELIKMKYWILNVPASVCDEYCWSQMLLYKKS-NH2; N-terminus assumed)	22.05 ± 3.61	75.57 ± 5.05	7.65	1.21 ± 2.42	10.74 ± 0.61	63.43 ± 4.76	8.88	33.2 ± 9.4	36.0 ± 8.2	65.0 ± 4.7	6.89	71	73	67	Block of INa ([1]; 1 μM): 14.79 ± 2.16%; Effect on INa at low concentrations ([1]; 1 and 3 μM): no effect on INa; Block of ICa [3, 12]: 14.28 ± 2.08%; Reduction of fluorescence compared with baseline ([4]; 10 μM): more than 60%; Block of voltage-gated sodium channels in vertebrates [6]: effective blockers of voltage-gated sodium channels in vertebrates; Solubility ([7]; in 20%ACN/80%H2O): 1000 µg/mL
CC[C@H](C)[C@H](NC(=O)[C@H](Cc1c[nH]c2ccccc12)NC(=O)[C@H](Cc1ccc(O)cc1)NC(=O)[C@@H](N)CCCCN)C(=O)N[C@@H](CC(C)C)C(=O)N[C@@H](CC(N)=O)C(=O)N[C@H](C(=O)N1CCC[C@H]1C(=O)N[C@@H](C)C(=O)N[C@@H](CO)C(=O)N[C@H](C(=O)N[C@@H](CS)C(=O)N[C@@H](CC(=O)O)C(=O)N[C@@H](CCC(=O)O)C(=O)N[C@@H](Cc1ccc(O)cc1)C(=O)N[C@@H](CS)C(=O)N[C@@H](Cc1c[nH]c2ccccc12)C(=O)N[C@@H](CO)C(=O)N[C@@H](CCC(N)=O)C(=O)N[C@@H](CCSC)C(=O)N[C@@H](CC(C)C)C(=O)N[C@@H](CC(C)C)C(=O)N[C@@H](Cc1ccc(O)cc1)C(=O)N[C@@H](CCCCN)C(=O)N[C@@H](CCCCN)C(=O)N[C@@H](CO)C(N)=O)C(C)C)C(C)C [PPA] (H-KYWILNVPASVCDEYCWSQMLLYKKS-NH2; N-terminus assumed)	28.92 ± 4.60	54.32 ± 8.29	9.08	14.04 ± 5.99	19.92 ± 5.32	52.86 ± 8.69	8.77	38.5 ± 7.1	38.7 ± 10.8	60.9 ± 6.1	6.95	77	71	60	Block of INa ([1]; 1 μM): 14.80 ± 5.05%; Block of ICa [3, 12]: 38.50 ± 7.14%; Reduction of fluorescence compared with baseline ([4]; 10 μM): more than 60%; Neuroprotection against veratridine, in words ([8]; veratridine, 24 h): lower neuroprotection than SSB and CHI; Survival rate of zebrafish larvae (zebrafish larvae; 1–30 µM, three different times, ref [14],[53]): decrease in survival rate to a minimum, for example, within 20 min at 3 µM peptide; LD50 in zebrafish larvae (zebrafish larvae; ref [14],[53]): 21.23 µM; Solubility ([7]; in 30%ACN/70%H2O): 1000 µg/mL
CC[C@H](C)[C@H](NC(=O)[C@H](Cc1c[nH]c2ccccc12)NC(=O)[C@H](Cc1ccc(O)cc1)NC(=O)[C@@H](N)CCCCN)C(=O)N[C@@H](CC(C)C)C(=O)N[C@@H](CC(N)=O)C(=O)N[C@H](C(=O)N1CCC[C@H]1C(=O)N[C@@H](C)C(=O)N[C@@H](CO)C(=O)N[C@H](C(=O)N[C@H]1CSSC[C@@H](C(=O)N[C@@H](Cc2c[nH]c3ccccc23)C(=O)N[C@@H](CO)C(=O)N[C@@H](CCC(N)=O)C(=O)N[C@@H](CCSC)C(=O)N[C@@H](CC(C)C)C(=O)N[C@@H](CC(C)C)C(=O)N[C@@H](Cc2ccc(O)cc2)C(=O)N[C@@H](CCCCN)C(=O)N[C@@H](CCCCN)C(=O)N[C@@H](CO)C(N)=O)NC(=O)[C@H](Cc2ccc(O)cc2)NC(=O)[C@H](CCC(=O)O)NC(=O)[C@H](CC(=O)O)NC1=O)C(C)C)C(C)C [SSB] (H-KYWILNVPASVCDEYCWSQMLLYKKS-NH2; disulfide 12-16; N-terminus assumed)	52.01 ± 11.02	73.76 ± 6.37	3.15	12.84 ± 4.19	10.10 ± 7.22	74.46 ± 5.00	9.68	28.1 ± 6.0	33.3 ± 7.9	42.7 ± 7.4	26	75	68	65	Effect on voltage-dependent potassium current ([2]; up to 10 µM): no effect on IKv was observed; LD50 in zebrafish larvae (zebrafish larvae; ref [14],[53]): 10.88 µM; Toxicity relative to the linear peptide (zebrafish larvae; zebrafish model, ref [14]): less toxic than the linear peptide; Effect on 6-OHDA-induced neurotoxicity ([9]; listed as folded PpVα): reversing the 6-hydroxydopamine (6-OHDA)-induced neurotoxicity on zebrafish locomotor behavior; also recorded: preventing the 6-OHDA-induced excessive ROS generation and subsequent dopaminergic neuron loss; Effect on 6-OHDA-induced neurotoxicity ([9]; listed as folded peptide): more effective than the linear unfolded peptide in suppressing 6-OHDA-induced neurotoxicity on locomotor behavior in zebrafish; Effect on 6-OHDA-induced neurotoxicity ([9]; listed as folded-PpVα): prevented the 6-OHDA-induced excessive ROS generation and subsequent dopaminergic neuron loss; Block of voltage-gated sodium channels in vertebrates [6]: effective blockers of voltage-gated sodium channels in vertebrates; Antiepileptic and neuroprotective activities [10]: displayed antiepileptic and neuroprotective activities; Solubility ([7]; in 30%ACN/70%H2O): 1000 µg/mL
COc1ccc2[nH]cc(CCNC(C)=O)c2c1 [melatonin, reference compound]															Reversion of cell damage ([5]; O/R (3 μM/4 μM) 24 h): approximately 80%; Cell viability with MLT ([5]; positive control against O/R, mean): 82%
NC1=N[C@H](O)[C@H]2[C@H]3O[C@]4(O)O[C@@H]([C@@H](O)[C@@]2(N1)[C@@H]4O)[C@]3(O)CO [tetrodotoxin]															Cell viability with TTX [8]: 85.41%; Neuroprotection against veratridine, in words [8]: almost wholly reverted the cellular damage
COc1ccc(C(=O)O[C@H]2CC[C@@]3(C)[C@@H]4CC[C@H]5[C@]6(O)C[C@H](O)[C@@]7(O)[C@@H](CN8C[C@@H](C)CC[C@H]8[C@@]7(C)O)[C@]6(O)C[C@@]53O[C@]24O)cc1OC [veratridine]															Cell viability, inducer alone (VTD) ([8]; veratridine 24 h, no peptide, untreated control 100, mean): 49.21%; Mortality rate compared with untreated cells ([8]; veratridine, 24 h): 50%
ziconotide															Cav channel inhibition (Cav channels (Cav2.2)): highly selective and potent inhibitor of Cav channels
